The values below come from PubChem BioAssay (NCI).

Values joined by “and” are separate entries in the source; they are usually repeats but may differ in a detail not shown here. Equal values may be shown once.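 1) Cells in 96-well plates. 2) Compound, 48 h, 5 concentrations. 3) Linear interpolation between surrounding doses. 4) Unreached endpoint = highest concentration. GI50 = concentration required for 50% inhibition of growth. TGI: concentration producing complete growth inhibition.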

One assay has as its system M19-MEL melanoma. The assay can be described thus: growth of human tumour cells (NCI), 48 h.
On to `CCCCCCCCCC[C@@H](O)[C@@H]1CC[C@H]([C@H]2CC[C@@H]([C@@H](O)CCCCCCCCCC[C@H]3CC(CC(C)=O)C(=O)O3)O2)O1` (stereo partly drawn), for which the TGI turned out to be 46.5 µM.
`CCOc1ccc2c(c1)[n+]([O-])c(S(=O)(=O)c1ccc(C)cc1)c(N)[n+]2[O-]` displayed a TGI of more than 100 µM.
The molecule `CC12CC[C@@H](C(C)(C)O)C1[C@@H](O)CC1(C)C2CCC2[C@@]3(C)CC[C@H](O)C(C)(C)C3C(O)C[C@]21C` (stereo partly drawn) registered a TGI of 52.1 µM.
The same measure, in the same setting: the result for `CCOC(=O)NC(=O)c1cn(C2OC(COC(=O)CCCCCCCCC(=O)OCC3OC(n4cc(C(=O)NC(=O)OCC)c(=O)[nH]c4=O)C(O)C3O)C(O)C2O)c(=O)[nH]c1=O` (stereo not drawn) reads more than 100 µM; that for `Cc1ccc(C)c(NC(=O)CC/C(=N\NC(=O)C(=O)NN)C(C)C(=O)c2ccc(O)cc2)c1` (stereo not drawn), more than 100 µM; that for `N=C1CSC2=NC3=C(CCC/C3=C\c3ccccc3)C(c3ccccc3)N12` (stereo not drawn), 18.3 µM.
On the same count and under the same terms, as for `COc1ccc(CNc2cc(OC)c(OC)c(OC)c2)cc1`, the figure is more than 100 µM; as for `COc1ccccc1C1C(C(=O)Nc2ccccc2)=C(C)NC(C)=C1C(=O)Nc1ccccc1`, more than 100 µM; as for `OCc1ccc2[n+](c1)CCC1c3ccccc3NC21` (stereo not drawn), more than 300 µM.
On to `CCCCCCCCCCCC(=O)CC(=O)c1c(O)cccc1O`, for which the TGI was determined as 34.2 µM.
The same measure, in the same setting: the result for `CN(C(=O)C12C3C4C1C1C2C3C41C(=O)C(C)(C)C)C(C)(C)C` (stereo not drawn) reads more than 100 µM; that for `Cc1cc2c(cc1C)[n+](=O)c(C(=O)CC(=O)C(=O)Nc1c(C(C)C)cccc1C(C)C)c(C)n2[O-]`, more than 100 µM.
Same read-out and setting: as for `COc1ccc2cc1Oc1ccc(cc1)CC1c3cc(c(OC)cc3CCN1C)Oc1c3c(cc4c1C(C2)N(C)CC4)OCO3` (stereo not drawn), the figure is 12.9 µM; as for `COc1ccc(OC)c(NC(=O)C(=O)C(C(C)=O)c2nc3ccc(Cl)cc3[nH]c2=O)c1` (stereo not drawn), more than 50 µM.
On the same count and under the same terms, as for `N#CC(C(=N/O)/C(=N/O)C(C#N)c1ccc(Cl)cc1)c1ccc(Cl)cc1` (stereo not drawn), the figure is more than 100 µM.

The next assay relates to MDA-N. The assay can be described thus: growth of human tumour cells (NCI), 48 h.
In the case of `Cc1nc2cccc([N+](=O)[O-])c2c(NCCCN(C)C)c1C`, the TGI was more than 100 µM.
Still for that read-out and setting: as for `CCOC(=O)CCc1cc(=O)oc2cc(O)cc(O)c12`, the figure is more than 100 µM; as for `CNC(=O)OCc1c(COC(=O)NC)c(-c2ccc(Cl)c(Cl)c2)n2c1SCC2`, 42.7 µM; as for `CC1OC(n2cc(F)c(=O)[nH]c2=O)CCC1O` (stereo not drawn), more than 100 µM.
Turning to `O=C(O)Cn1ccc(=O)c2ccc([N+](=O)[O-])cc21`, the TGI was more than 100 µM.
As to `CC1CCC2(C(=O)O)CCC3(C)C(=CCC4C5(C)CC(O)C(O)C(C)(CO)C5C(O)CC43C)C2C1C` (stereo not drawn), the TGI is more than 57.6 µM.
`COc1cnc2cc(C(=O)O)c3c([N+](=O)[O-])cccc3c2c1` returned a TGI of more than 100 µM.
For the molecule `CCOC(=O)/C=C(/C(=O)OCC)n1cc(Cl)c(=O)n(CC(=O)OCC)c1=O`, the GI50 was 16.4 µM; the TGI was 11.9 µM and 31.4 µM.
Take `O=C1NNC=Nc2ccc(cc2)S(=O)(=O)c2ccc(cc2)N=CNNC1=O`: the TGI is more than 100 µM.
As for `CC1OC(O[C@H]2C[C@@H](O)[C@]3(CO)[C@H]4[C@H](O)C[C@]5(C)[C@@H](C6=CC(=O)OC6)CC[C@]5(O)[C@@H]4CC[C@]3(O)C2)C(O)C(O)C1O` (stereo partly drawn), the GI50 is 18.8 µM and the TGI came out at 33.7 µM.
On to `COc1cccc(-c2cc(=O)c3cc(N(C)C)ccc3[nH]2)c1`, for which the GI50 was 0.00154 µM; the TGI was 0.00774 µM and 0.00529 µM.
For the molecule `O=C1CNCCCN2CCN(CCCNCC(=O)Nc3ccc(cc3)S(=O)(=O)c3ccc(cc3)NC(=O)CNCCCN3CCN(CCCNCC(=O)Nc4ccc(cc4)S(=O)(=O)c4ccc(cc4)N1)CC3)CC2`, the TGI amounted to 42.2 µM.
`O=NN(Cc1ccc(Cl)cc1)C(C(=O)O)c1ccccc1` (stereo not drawn) had a TGI of more than 100 µM.

The subject of the next assay is XF 498 CNS. Briefly: growth of human tumour cells (NCI), 48 h.
Take `CC1(Cl)C(=O)NC(=O)N(C2CC(N=[N+]=[N-])C(CO)O2)C1N=[N+]=[N-]` (stereo not drawn): the TGI was more than 100 µM.
Same read-out and setting: the result for `COc1ccc2ccc3c(c2c1)CN1CCc2cc(OC)c(OC)cc2C1C3` (stereo not drawn) reads more than 100 µM; that for `CCCCNC1=C(C(=O)OCC)C(=O)CO1`, more than 100 µM; that for `COc1cc(C2c3cc4c(cc3C(NCC(O)CO)C3COC(=O)[C@H]23)OCO4)cc(OC)c1OC` (stereo partly drawn), more than 100 µM.
The same measure, in the same setting: as for `COC(=O)CC(=O)C[P+](c1ccccc1)(c1ccccc1)c1ccccc1`, the figure is 201 µM; as for `CCCCN(CCCC)C(=O)C(=O)C(C#N)c1ccc(C)cc1` (stereo not drawn), more than 100 µM.
Turning to `Cc1ccc(S(=O)(=O)C(CC(=O)N2CCCC2)C(=O)c2ccccc2)cc1` (stereo not drawn), the TGI was more than 100 µM.
Same read-out and setting: as for `CC1(C)CC(/C=C2/OC(=O)c3ccccc32)=C(C#N)C(=O)O1`, the figure is more than 100 µM; as for `Cc1nc2c(nc1Cl)nc(Oc1ccc(Cl)cc1)c1ccccc12`, more than 100 µM; as for `CC(=O)Nc1ccccc1Sc1ccccc1`, more than 100 µM.
As to `COC(=O)C[C@H]1CCC2(OCCO2)[C@]1(C)C(=O)OC`, the TGI is more than 100 µM.
On the same count and under the same terms, the result for `CCOC(=O)NC(=O)c1cn(C2OC(COC(=O)CCCCCCCCC(=O)OCC3OC(n4cc(C(=O)NC(=O)OCC)c(=O)[nH]c4=O)C(O)C3O)C(O)C2O)c(=O)[nH]c1=O` (stereo not drawn) reads more than 100 µM; that for `N=C1CSC2=NC3=C(CCC/C3=C\c3ccccc3)C(c3ccccc3)N12` (stereo not drawn), 35.1 µM; that for `COc1ccc(CNc2cc(OC)c(OC)c(OC)c2)cc1`, more than 100 µM.
Still for that read-out and setting: the result for `COc1ccccc1C1C(C(=O)Nc2ccccc2)=C(C)NC(C)=C1C(=O)Nc1ccccc1` reads more than 100 µM; that for `OCc1ccc2[n+](c1)CCC1c3ccccc3NC21` (stereo not drawn), more than 300 µM; that for `CCCCCCCCCCCC(=O)CC(=O)c1c(O)cccc1O`, 33.3 µM.
For `CN(C(=O)C12C3C4C1C1C2C3C41C(=O)C(C)(C)C)C(C)(C)C` (stereo not drawn), the TGI is more than 100 µM.
Take `Cc1cc2c(cc1C)[n+](=O)c(C(=O)CC(=O)C(=O)Nc1c(C(C)C)cccc1C(C)C)c(C)n2[O-]`: the TGI was more than 100 µM.
Take `COc1ccc2cc1Oc1ccc(cc1)CC1c3cc(c(OC)cc3CCN1C)Oc1c3c(cc4c1C(C2)N(C)CC4)OCO3` (stereo not drawn): the TGI was 21.6 µM.
With `COc1ccc(OC)c(NC(=O)C(=O)C(C(C)=O)c2nc3ccc(Cl)cc3[nH]c2=O)c1` (stereo not drawn), the TGI is more than 50 µM.
Still for that read-out and setting: the result for `N#CC(C(=N/O)/C(=N/O)C(C#N)c1ccc(Cl)cc1)c1ccc(Cl)cc1` (stereo not drawn) reads more than 100 µM.
